Test results as given in patent US20100144626A1, “Treatment of Multi-Drug Resistant Bacterial Infections” (priority 2006, published 2010).
In brackets after ≈: the same amount, converted by molar mass.

Key:
[1] = test system: strains of Staphylococci and Enterococci with reduced susceptibility to vancomycin; assay: Growth inhibition, summary of MIC testing; type: cell-based; details: summary in words
Experimental: (§1) In example experiments miconazole nitrate, was dissolved in methanol and econazole nitrate and clotrimazole were dissolved in DMSO and methanol respectively. Other solvents that may be used include caster oil, pyridine, DMSO and 0.9% saline. For IV administration agents may be solubilised in polyethoxylated caster oil, or cyclodextrins such as sulfobutylether7-βcyclodextrin or hydroxypropyl-β-cyclodextrin and lactic acid. Minimum inhibitory concentrations (MICs) of a range of clinical and control bacterial organisms were measured according to BSAC (British Society for Antimicrobial Chemotherapy) guidelines, described briefly as follows;
(§2) Stock solutions were prepared at concentrations of 1000 mg/L and 100 mg/L. The appropriate amounts of each stock solution were added to separate Petri dishes give the following final concentrations (after the addition of 20 mL molten agar): 128, 64, 32, 16, 8, 4, 2, 1, 0.5, 0.25, 0.12, 0.06, 0.03, 0.015 mg/L.
(§3) The test organisms were grown overnight in 5 mL IST broth. Using a dilution in 0.9% saline of 1:500 for Gram-negative organisms and 1:100 for Gram-positive organisms, the appropriate agar plates were inoculated using a multipoint inoculator.
(§4) Plates were incubated at 37° C. in air for 18-20 hours.
(§5) The MIC is the minimum amount of an antibiotic at which there is no visible growth of bacteria. Tiny single colonies or faint hazes were not counted as growth.

[2] = test system: Escherichia coli NCTC 10418; assay: MIC, agar dilution (BSAC guidelines); type: cell-based; details: NCTC10418, Table 2, E. coli NCTC 10418, read-out: Minimum inhibitory concentration (MIC)
Experimental: as §1
(§6) Preparation of Agar Plates and Broths
(§7) Stock solutions of each agent were prepared using the formula:
(§8) Where P=μg of active compound per mg (μg/mg) • V=volume required (mL) • C=final concentration of solution (mg/L) • W=weight of agent (mg) to be dissolved in volume V (mL)
as §2
(§9) Volumes (20 mL) of cooled molten IST agar (oxoid) was added to each Petri dish and mixed by swirling.
(§10) After drying, the plates were stored at 4° C. and protected from light. Plates were used on the day of preparation.
as §3, §4, §5

[3] = test system: Staphylococcus epidermidis ATCC 1228; assay: MIC, agar dilution (BSAC guidelines); type: cell-based; details: ATCC1228, Table 2, S. epidermidis ATCC 1228, read-out: Minimum inhibitory concentration (MIC)
Experimental: as §1, §6, §7, §8, §2, §9, §10, §3, §4, §5

[4] = test system: VISA, strain USA/VISA 5827; assay: MIC, agar dilution (BSAC guidelines); type: cell-based; details: Staphylococcus aureus, Table 2, read-out: Minimum inhibitory concentration (MIC)
Experimental: as §1, §6, §7, §8, §2, §9, §10, §3, §4, §5

[5] = test system: Enterococcus faecium (VRE) E19 UAA/522 VanB; assay: MIC, agar dilution (BSAC guidelines); type: cell-based; details: Table 2, E. faecium (VRE) E19 UAA/522 VanB, read-out: Minimum inhibitory concentration (MIC)
Experimental: as §1, §6, §7, §8, §2, §9, §10, §3, §4, §5

[6] = test system: Enterococcus faecalis (VRE) E8 VanA; assay: MIC, agar dilution (BSAC guidelines); type: cell-based; details: Table 2, E. faecalis (VRE) E8 VanA, read-out: Minimum inhibitory concentration (MIC)
Experimental: as §1, §6, §7, §8, §2, §9, §10, §3, §4, §5

[7] = test system: Pseudomonas aeruginosa NCTC 10662; assay: MIC, agar dilution (BSAC guidelines); type: cell-based; details: NCTC10662, Table 2, P. aeruginosa NCTC 10662, read-out: Minimum inhibitory concentration (MIC)
Experimental: as §1, §6, §7, §8, §2, §9, §10, §3, §4, §5

[8] = test system: Enterococcus faecium (VRE) NCTC 7171; assay: MIC, agar dilution (BSAC guidelines); type: cell-based; details: Table 2, E. faecium (VRE) NCTC 7171, read-out: Minimum inhibitory concentration (MIC)
Experimental: as §1, §6, §7, §8, §2, §9, §10, §3, §4, §5

[9] = test system: VISA, strain USA/VISA 5836; assay: MIC, agar dilution (BSAC guidelines); type: cell-based; details: Staphylococcus aureus, Table 2, read-out: Minimum inhibitory concentration (MIC)
Experimental: as §1, §6, §7, §8, §2, §9, §10, §3, §4, §5

[10] = test system: VISA, strain VISA 3900 UK; assay: MIC, agar dilution (BSAC guidelines); type: cell-based; details: Staphylococcus aureus, Table 2, read-out: Minimum inhibitory concentration (MIC)
Experimental: as §1, §6, §7, §8, §2, §9, §10, §3, §4, §5

[11] = test system: Enterococcus faecium (VRE) E15 VanA ATCC 4147; assay: MIC, agar dilution (BSAC guidelines); type: cell-based; details: Table 2, E. faecium (VRE) E15 VanA ATCC 4147, read-out: Minimum inhibitory concentration (MIC)
Experimental: as §1, §6, §7, §8, §2, §9, §10, §3, §4, §5

[12] = test system: Enterococcus faecium (VRE) VanR B145344C LFE; assay: MIC, agar dilution (BSAC guidelines); type: cell-based; details: Table 2, E. faecium (VRE) VanR B145344C LFE, read-out: Minimum inhibitory concentration (MIC)
Experimental: as §1, §6, §7, §8, §2, §9, §10, §3, §4, §5

[13] = in vivo; cited from earlier work

MIC [2] [µg/mL] | MIC [3] [µg/mL] | MIC [4] [µg/mL] | MIC [5] [µg/mL] | MIC [6] [µg/mL] | MIC [7] [µg/mL] | MIC [8] [µg/mL] | MIC [9] [µg/mL] | MIC [10] [µg/mL] | MIC [11] [µg/mL] | MIC [12] [µg/mL] | Structure (SMILES) | activity against strains of Staphylococci and Enterococci with reduced susceptibility to vancomycin [1] | systemic absorption [13] | topical dose recovered in the urine or faeces [13]
> 128 | > 128 | > 128 | > 128 | > 128 | > 128 | > 128 | > 128 | > 128 | > 128 | > 128 | c1ccc(-c2ccc(C(c3ccccc3)n3ccnc3)cc2)cc1 (centres unmarked) [Bifonazole] | did not show this activity |  | 
> 128 | > 128 | > 128 | > 128 | > 128 | > 128 | > 128 | > 128 | > 128 | > 128 | > 128 | OC(Cn1cncn1)(Cn1cncn1)c1ccc(F)cc1F [Fluconazole] | did not show this activity |  | 
> 256 | 64 (≈ 120 µM) | 64 (≈ 120 µM) | 128 (≈ 241 µM) | > 256 | > 256 | 128 (≈ 241 µM) | 64 (≈ 120 µM) | 64 (≈ 120 µM) | 16 (≈ 30.1 µM) | 128 (≈ 241 µM) | CC(=O)N1CCN(c2ccc(OCC3COC(Cn4ccnc4)(c4ccc(Cl)cc4Cl)O3)cc2)CC1 (centres unmarked) [Ketoconazole] | did not show this activity |  | 
 |  |  |  |  |  |  |  |  |  |  | Clc1ccc(COC(Cn2ccnc2)c2ccc(Cl)cc2Cl)cc1 (centres unmarked) [econazole nitrate] |  | extremely low | Less than 1%
